Here are results for one compound from patent US20260193254A1, “2-OXOQUINAZOLINE CRYSTALLINE FORMS” (IDEAYA Biosciences, Inc., priority 2022, published 2026).

What all share (assay type): physicochemical
Data set [1] in a line: Equilibration with solvents at 25° C. for 2 weeks. As to conditions: equilibration at 25° C. for 2 weeks. On the procedure:
Obtained suspension was filtered. The solid part (wet cake) was investigated by XRPD. When differences were observed, additional investigations were performed (e.g. DSC, TGA etc.).

A short description of data set [2]: Crystallization at room temperature by slow evaporation. The conditions noted are these: ambient condition. The text has this: Combined with approximate solubility experiment, solubility samples were filtered by 0.45 μm nylon filter. Obtained solutions were slow evaporated at ambient condition. Solid residues were examined for their polymorphic form.
Data set [3] can be described thus: Precipitation by addition of anti-solvent. As to conditions: 1/5 (v:v). On the procedure: Anti-solvent was added into the obtained solutions slowly. Precipitates were collected by filtration. The solid part (wet cake) was investigated by XRPD. When differences were observed, additional investigations will be performed (e.g. […] etc.).

Take `Nc1nc(=O)n(-c2ccccc2Cl)c2nc(C(F)(F)F)ccc12` [solid state Form V, 4-Amino-1-(2-chlorophenyl)-7-(trifluoromethyl)pyrido[2,3-d]pyrimidin-2(1H)-one]: the “Crystalline Form” value is on record as “Form G” in data set [1] (Acetone (63 mg/mL)); “Form G” in data set [1] (Acetone/water = 1/1 (v/v) (63 mg/mL)); “Form A” in data set [1] (Acetonitrile/water = 1/1 (v/v) (62 mg/mL)); “Form C (hemi-hydrate)” in data set [1] (Ethanol/water = 1/1 (v/v) (64 mg/mL)); “Form C (hemi-hydrate)” in data set [1] (Methanol (65 mg/mL)); “Form E (hemi-hydrate)” in data set [1] (Methanol/water = 1/1 (v/v) (64 mg/mL)). The “Crystalline Form” value in data set [1] (t-Butyl methyl ether (65 mg/mL)) and in data set [1] (t-Butyl methyl ether/water = 95/5(v/v) (63 mg/mL)) was “Form H (MTBE solvate)” in each case. The “Crystalline Form formed by slow evaporation” value in data set [2] (SE1 Methanol (15 mg/mL)) is given as “Solid state Form V”; in data set [2] (SE2 Ethanol (7 mg/mL)), “Form F with low crystalline”; in data set [2] (SE3 2-Propanol (5 mg/mL)) it was “Form J (IPA solvate)”; in data set [2] (SE6 Acetone (5 mg/mL)), “Form G”; in data set [2] (SE7 Methyl ethyl ketone (5 mg/mL)) it was “Form G”; in data set [2] (SE9 Tetrahydrofuran (5 mg/mL)), “Form K”. Besides, the “Crystalline Form formed by slow evaporation” value in data set [2] (SE12 Methanol/Ethyl acetate = 1/1 (v/v) (7 mg/mL)) and in data set [2] (SE13 Methanol/Acetonitrile = 1/1 (v/v) (11 mg/mL)) was “Solid state Form V” in each case. For the same compound, the “Crystalline Form formed by addition of anti-solvent” value in data set [3] (AS5 Ethanol (7), anti-solvent Heptane) was “Form G”; in data set [3] (AS8 Ethanol (7), anti-solvent Water), “Form F”.
